Consider one molecule from patent US9682993B2, “Anticancer compounds” (ST. JUDE CHILDREN'S RESEARCH HOSPITAL, priority 2012, dated 2017).

A short description of the data set: In vivo plasma pharmacokinetic study in C.B-17 scid mice. The method, then:
A sensitive and specific LC-MS/MS assay was developed for quantification of compound 20 in plasma for application in a murine pharmacokinetic study. Calibrators and quality controls (QCs) were prepared using 100% methanol stocks in blank C.B-17 scid mouse plasma with lithium heparin anticoagulant. The calibrators and QCs, 25 μL each, were stored briefly on wet ice and then protein precipitated with 75 μL of ice cold compound 19 internal standard processing solution. The supernatants, 100 μL of each, were mixed with 100 μL of methanol-10 mM ammonium bicarbonate, pH 7.0 (50:50 v/v) and injected from the 96-well plate to the LC-MS/MS system via a CTC HTS PAL autosampler. Chromatography was performed using a Phenomenex Synergi Fusion-RP C18 column ([…], 50 mm×2.0 mm) maintained at 35° C., and a linear gradient mobile phase consisting of water:methanol:acetonitrile ([…], v/v) to methanol: acetonitrile (70:30, v/v) and back. […] Detection was performed with an AB Sciex 5500 QTRAP LC-MS/MS System equipped with a Turbo IonSpray® source using the positive multiple-reaction monitoring (MRM) mode. The transitions monitored included m/x 475->288 for compound 20 and m/x 489->400 for compound 19, which served as an internal standard. The lower limit of quantitation was 1 ng/mL (5× S:N ration, <20% CV); intra-run precision and accuracy was ≦11.2% CV and 96.5-103%, respectively. The calibration curve was linear from 1 to 500 ng/mL (R=0.9968) and QC samples above the limit of quantitation (500 ng/mL) were precisely and accurately diluted into the linear range with blank C.B-17 scid mouse plasma.
A plasma PK study of compound 20 in male C.B-17 scid mice receiving a continuous i.v. infusion of compound 20 (100 mg/kg over 30 min) was performed. Compound 20 was formulated in 15% Captisol®/50 mM Na2HPO4/NaH2PO4 solution at 3 mg/mL and infused with a syringe pump at a rate of 20 μL/min via a jugular vein catheter. Blood samples (1 to 2 samples per mouse, 18 samples from 11 total mice) were collected by either retro-orbital sinus bleeding or terminal cardiac puncture at the following times after the start of infusion: 7.5, 15, 30 (end of infusion), 35, 45, and 60 minutes. The samples were immediately processed to plasma by centrifugation at 2000 g for 5 min; the resultant volume of plasma was then protein precipitated with a 3:1 volume of ice cold IS processing solution. The supernatants were immediately placed on dry ice and then stored at −80° C. until analysis.
The concentration-time data for compound 20 in mice was analyzed using the MLEM population estimation method as implemented in ADAPTS (D'Argenio, D. Z. and Schumitzky, A., Wang ADAPT 5 User's Guide: Pharmacokinetic/Pharmacodynamic Systems Analysis Software; Biomedical Simulations Resource: Los Angeles, Calif., USA, 2009). A linear, one-compartment PL model was fit to the data, and the adequacy of the fit was assessed by the −2 log likelihood value, visual predictive checks, and the residual plots. Inter-individual variability in plasma clearance (CL) and volume of distributions (V) was assumed to be log-normally distributed with the covariance matrix constrained to diagonal elements. The residual, intra-individual error was described using an additive and proportional model, with the additive term fixed to the lower limit of quantitation of the LC-MS/MS assay (LLOQ, 1 ng/mL). Beal's M3 method was used to handle data that was below the LLOQ (Beal, S. L., J. Pharmacokinet. Pharmacodyn. 2001, 28, 481). Other secondary parameters, such as the area under the plasma concentration-time curve to infinity (AUCinf), maximum plasma concentration (Cmax), and the time of Cmax (Tmax) were derived for the population using standard formulae (Pharmacokinetics, Second Edition; Gibaldi, M.; Perrier, D., Eds.; 2nd ed.; CRC Press, 1982).

[1] abbreviates: male, C.B-17 scid, mouse, plasma, iv, 100 mg/kg, i.v. infusion over 30 min, population.

Structures are written as SMILES. A value given as a limit tells only on which side of the number the result lay.

With `CNC(=O)O[C@@H](C)/C=C\C(=O)N[C@H]1CC[C@@H](C/C=C(C)/C=C/[C@@H]2C[C@]3(CO3)CC(C)(C)O2)CC1` [compound 20, (S,Z)-5-(((1R,4R)-4-((2E,4E)-5-((3R,5S)-7,7-Methyl-1,6-Dioxaspiro[2.5]Octan-5-Yl)-3-Methylpenta-2,4-Dien-1-Yl)Cyclohexyl)Amino)-5-Oxopent-3-En-2-Yl Methylcarbamate], the “mean CL relative to hepatic blood flow” value (i.v. infusion over 30 min) stood at 3 fold. For the same molecule, the V (i.v. infusion over 30 min, population mean) was 0.877 L/kg. Also, under setting [1], the AUC(0-inf) is 12.5 µM·h, the Cmax came out at 24.1 µM and the time of peak concentration (Tmax) was 30 min. The half-life (male, C.B-17 scid, mouse, plasma, iv, 100 mg/kg, i.v. infusion over 30 min, population mean terminal elimination half-life) turned out to be 2.18 min. Also, the clearance (male, C.B-17 scid, mouse, plasma, iv, i.v. infusion over 30 min (100 mg/kg, 50 mg/kg elsewhere in the source), population mean) came out at 280 mL/min/kg. The “plasma concentration versus target plasma concentration” value (target far exceeded and maintained for an adequate time period) was greater than 0.5 µM.
